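96-well plates; 48 h exposure; 5 concentrations. Endpoints by linear interpolation between flanking doses. Not reached: highest tested concentration assigned. GI50: concentration for 50% inhibition of growth.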 The source made the active and inactive calls. No stated cut-off is given here; in the data, active = GI50 up to about 1.1 µM and inactive = higher. A value given as a limit tells only on which side of the number the result lay.

Among the test systems are KM12; MDA-N; EKVX; NCI-H23; OVCAR-3; SF-268; OVCAR-5; SW-620; DU-145; NCI/ADR-RES; SR; NCI-H226; RXF 393; IGROV-1; SK-MEL-28; U-251; SF-539; HOP-62; 786-0; CCRF-CEM.
Holding throughout (assay): inhibition of tumour cell growth, NCI panel, 48 h

In the case of `Cn1c(=O)c2[nH]c(CCC(=O)O)nc2n(C)c1=O`, the GI50 in the assay with KM12, with MDA-N, with EKVX, with NCI-H23, in the assay on OVCAR-3 and with SF-268 was > 100 µM (inactive) in each case. Further, the GI50 with OVCAR-5, with SW-620, in the assay on DU-145, in the assay with NCI/ADR-RES, with SR and with NCI-H226 was > 100 µM (inactive) each time. Besides, the GI50 in the assay with RXF 393, in the assay with IGROV-1, in the assay with SK-MEL-28, in the assay on U-251, with SF-539 and with HOP-62 was > 100 µM (inactive) in each case. The GI50 in the assay with 786-0 and in the assay with CCRF-CEM was > 100 µM (inactive) throughout.

Regarding `CCCCCCCCCCCCCCCCC(C(=O)O)C(O)(CC(=O)O)C(=O)O` (centres undefined), the GI50 was 21.2 µM (inactive) in the assay on KM12; 47 µM (inactive) in the assay on MDA-N; 20.2 µM (inactive) with EKVX; 29 µM (inactive) in the assay on NCI-H23; 18.5 µM (inactive) with OVCAR-3; 28.6 µM (inactive) in the assay with SF-268. Also, the GI50 is 17.9 µM (inactive) with OVCAR-5; 20 µM (inactive) in the assay on SW-620; 35.6 µM (inactive) in the assay on DU-145; 57 µM (inactive) with NCI/ADR-RES; 24.7 µM (inactive) with SR; 22.6 µM (inactive) with NCI-H226. Also, the GI50 with RXF 393 was 22.1 µM (inactive); with IGROV-1, 22.1 µM (inactive); with SK-MEL-28 it was 23.9 µM (inactive); in the assay with U-251, 16.7 µM (inactive); in the assay with SF-539, 28.1 µM (inactive); in the assay with HOP-62, 17.2 µM (inactive). Moreover, the values for the GI50 in the assay with 786-0 and in the assay with CCRF-CEM were 35.2 µM (inactive) and 27.1 µM (inactive), respectively.

As to `CC(C)C(NC(=O)C(Cc1ccccc1)NC(=O)[C@H]1CCC[C@H]1NC(=O)C(N)Cc1ccc(O)cc1)C(N)=O` (some centres undefined), the GI50 with KM12, with MDA-N, with EKVX, in the assay with NCI-H23, with OVCAR-3 and with SF-268 was > 100 µM (inactive) in each case. Further, the GI50 in the assay with OVCAR-5, in the assay with SW-620, in the assay with DU-145, in the assay on NCI/ADR-RES, in the assay on SR and in the assay on NCI-H226 was > 100 µM (inactive) in each case. Also, the GI50 in the assay on RXF 393, with IGROV-1, with SK-MEL-28, in the assay on U-251, in the assay on SF-539 and in the assay with HOP-62 was > 100 µM (inactive) throughout. Further, the GI50 in the assay with 786-0 and with CCRF-CEM was > 100 µM (inactive) each time.

For the compound `Cc1ccc(C)n2c1nc1ccc3ccccc3c12`, the GI50 in the assay with KM12 is > 100 µM (inactive); in the assay with MDA-N it was > 100 µM (inactive); with EKVX, 27.9 µM (inactive); with NCI-H23 it was > 100 µM (inactive); in the assay on OVCAR-3, > 100 µM (inactive); in the assay on SF-268, > 100 µM (inactive). Further, the GI50 in the assay on OVCAR-5, with SW-620, in the assay with DU-145, in the assay on NCI/ADR-RES, in the assay with SR and in the assay on NCI-H226 was > 100 µM (inactive) throughout. The GI50 in the assay on RXF 393, in the assay with IGROV-1, with SK-MEL-28, in the assay with U-251, in the assay with SF-539 and in the assay on HOP-62 was > 100 µM (inactive) each time. For the same compound, the GI50 in the assay on 786-0 and in the assay with CCRF-CEM was > 100 µM (inactive) each time.

Regarding `Cc1ccc(-c2n[nH]c(=O)[nH]2)cc1`, the GI50 in the assay on KM12 was > 100 µM (inactive); with MDA-N it was > 100 µM (inactive); with EKVX, 45.8 µM (inactive); with NCI-H23 it was > 100 µM (inactive); with OVCAR-3 it was > 100 µM (inactive); in the assay with SF-268, > 100 µM (inactive). In addition, the GI50 in the assay with OVCAR-5, in the assay on SW-620, in the assay with DU-145, in the assay on NCI/ADR-RES, in the assay on SR and with NCI-H226 was > 100 µM (inactive) throughout. Besides, the GI50 with RXF 393, in the assay with IGROV-1, with SK-MEL-28, in the assay on U-251, with SF-539 and in the assay on HOP-62 was > 100 µM (inactive) throughout. Also, the GI50 with 786-0 and in the assay with CCRF-CEM was > 100 µM (inactive) each time.

Consider `O=C(O)C(=Cc1ccc(-c2ccc([N+](=O)[O-])cc2)o1)C(=O)O`, for which the GI50 with KM12, in the assay on MDA-N, with EKVX, in the assay on NCI-H23, in the assay on OVCAR-3 and in the assay with SF-268 was > 100 µM (inactive) throughout. Moreover, the GI50 in the assay on OVCAR-5, in the assay on SW-620, in the assay on DU-145, in the assay on NCI/ADR-RES, in the assay with SR and in the assay with NCI-H226 was > 100 µM (inactive) each time. In addition, the GI50 was > 100 µM (inactive) with RXF 393; > 100 µM (inactive) in the assay on IGROV-1; > 100 µM (inactive) in the assay on SK-MEL-28; > 100 µM (inactive) in the assay with U-251; > 100 µM (inactive) in the assay with SF-539; < 0.01 µM (active) with HOP-62. Besides, the GI50 in the assay with 786-0 and in the assay with CCRF-CEM was > 100 µM (inactive) throughout.

`O=C(NCCCl)N(O)C(=O)Nc1ccccc1`: the GI50 with KM12, in the assay with MDA-N, in the assay with EKVX, in the assay with NCI-H23, in the assay on OVCAR-3 and with SF-268 was > 100 µM (inactive) in each case. In addition, the GI50 is > 100 µM (inactive) with OVCAR-5; > 100 µM (inactive) in the assay with SW-620; 35.4 µM (inactive) in the assay with DU-145; 74.6 µM (inactive) in the assay with NCI/ADR-RES; > 100 µM (inactive) in the assay on SR; > 100 µM (inactive) with NCI-H226. Moreover, the GI50 in the assay with RXF 393, in the assay on IGROV-1, with U-251, with SF-539, with HOP-62 and with 786-0 was > 100 µM (inactive) in each case. Further, the GI50 with CCRF-CEM was > 100 µM (inactive).

The values are drawn from ChEMBL document CHEMBL1201862, “PubChem BioAssay data set” (2004).
